The record followed here is patent US6500842B1, “8-hydroxy-7-substituted quinolines as anti-viral agents” (Pharmacia & Upjohn Company, priority 1996, dated 2002).

Several values for one entry are separate records, joined by “and”; a condition that tells them apart may be missing. Identical values can stand only once. Like-named read-outs stand apart in the source and are kept apart here.

One series deals with HCMV. Put plainly: CMV antiviral assay, cell culture based ELISA in human foreskin fibroblast cells. More on the design: species or system human cytomegalovirus (HCMV). How it is done:
Compounds are tested for direct antiviral activity against HCMV using a cell culture based assay. An ELISA (enzyme linked immunosorbant assay) format is used as described in W. A. Tatarowicz, N. S. Lurain and K. D. Thompson, J. Virol. Meth., 35:207-215 (1991). Human foreskin fibroblast cells are infected with HCMV at a multiplicity of 0.025 plaque forming units per microtiter plate well for a period of 90 minutes. The virus inocula is removed and a suspension of test compound prepared in tissue culture media is added for a period of 4 days. The growth media is aspirated and replaced with 95% ethanol to allow fixation of virus infected cultures. The ethanol is removed and the wells are washed twice with saline. A solution of 2% dry fat milk, 1% bovine sera albumin prepared in saline is added to wells to allow for non-specific binding of protein material to plastic surfaces for 1 hr. Murine monoclonal antibody prepared in saline directed against the late (65 KD) matrix protein of HCMV is added to test wells for 1 hr. The wells are washed twice and antibody, conjugated with the enzyme horse radish peroxidase, with specificity against murine IgG is added to test wells for 1 hr. Test wells are washed three times with saline. A solution of o-phenylene diamine, a substrate for horse radish peroxidase is added for 15 minutes at which time enzymatic conversion occurs indicating reactivity of the enzyme with its substrate. This conversion is evident as a color reaction which was spectrophoretically monitored at 490 nm. The intensity of the color indirectly reflects the presence of antibody directed against the viral 65 KD matrix antigen. The presence of the viral matrix antigen refects the amount of HCMV replication. Thus, test wells, in which little viral replication has occurred, would have little or no antibody binding and are present with low levels of color. Non-infected wells serve as the assay background control.
For orientation: ELISA stands for enzyme-linked immunosorbent assay.

[1] abbreviates: Human betaherpesvirus 5, Fibroblast, antiviral, Table 4, read-out: IC50 (AV).
Where [2] appears, read: antiviral, Table 4, read-out: IC50 (AV).

Usually melting point stands for the temperature of the solid-liquid transition. By IC50 is commonly meant the concentration that inhibits the measured activity by half. `C[Si](C)(c1ccccc1)c1cc(Cl)c2cccnc2c1O` [Example 45, 5-Chloro-7-(dimethylphenylsilyl)-8-quinolinol] displayed a melting point of 101 to 103 °C. Also, the “% Inh −AV” value in the series with HCMV (Conc 2.00e+001 uM, Table 4) was determined as 83.0%. Further, the “% Inh −AV” value with HCMV (Conc 4.00e+000 uM, Table 4) is on record as 75.0%. Also, the “% Inh −AV” value in the series on HCMV (Conc 4.00e+001 uM, Table 4) was 89.0%. Besides, the “% Inh −AV” value in the series with HCMV (Conc 8.00e−001 uM, Table 4) was found to be 39.0%. In addition, the IC50 in the series on HCMV (setting [1]) is 1.2 µM.

Regarding `C[Si](C)(C)c1cc(Cl)c2cccnc2c1O` [Example 44, 5-Chloro-7-(trimethylsilyl)-8-quinolinol], the melting point is 109 to 111 °C. Moreover, the “% Inh −AV” value with HCMV (Conc 4.00e+000 uM, Table 4) was 65.0% and 59.0%. The IC50 in the series on HCMV (setting [1]) worked out at 2.7 µM.

In the case of `CC(C)(C)[Si](c1ccccc1)(c1ccccc1)c1cc(Cl)c2cccnc2c1O` [Example 43, 5-Chloro-7-[(1,1,-dimethylethyl)diphenylsilyl]-8-quinolinol], the melting point was 133 to 139 °C. The “% Inh −AV” value in the series on HCMV (Conc 1.00e+001 uM, Table 4) amounted to 99.0%. For the same molecule, the “% Inh −AV” value with HCMV (Conc 1.25e+000 uM, Table 4) is 87.0%. Besides, in the series with HCMV (Conc 2.00e+001 uM, Table 4), the “% Inh −AV” value is 90.0%. The “% Inh −AV” value with HCMV (Conc 2.50e+000 uM, Table 4) was 99.0%. Moreover, the “% Inh −AV” value with HCMV (Conc 4.00e+000 uM, Table 4) was 77.0% and 88.0%. The “% Inh −AV” value in the series on HCMV (Conc 4.00e+001 uM, Table 4) is 85.0% and 81.0%. The “% Inh −AV” value in the series with HCMV (Conc 4.00e−001 uM, Table 4) was found to be 50.0%. For the same molecule, the “% Inh −AV” value in the series with HCMV (Conc 5.00e+000 uM, Table 4) amounted to 99.0%. Besides, the “% Inh −AV” value with HCMV (Conc 8.00e−001 uM, Table 4) is 65.0% and 43.0%. For the same molecule, the 50% inhibitory concentration (IC50) in the series with HCMV (setting [2]) is 0.12 µM and 0.44 µM.

The molecule `CC(C)[Si](c1cc(Cl)c2cccnc2c1O)(C(C)C)C(C)C` [Example 42] yielded a melting point of 107 to 108 °C. Besides, in the series on HCMV (Conc 2.00e+001 uM, Table 4), the “% Inh −AV” value is 88.0% and 99.0%. In the series with HCMV (Conc 4.00e+000 uM, Table 4), the “% Inh −AV” value is 51.0% and 89.0%. Moreover, in the series with HCMV (Conc 4.00e+001 uM, Table 4), the “% Inh −AV” value is 92.0% and 99.0%. In addition, the “% Inh −AV” value in the series on HCMV (Conc 8.00e−001 uM, Table 4) came out at 0.0%. In the series with HCMV (setting [2]), the IC50 is 5.2 µM.

Take `CC(C)(C)[Si](C)(C)c1cc(Cl)c2cccnc2c1O` [Example 41, 5-Chloro-7-[(1,1-dimethylethyl)dimethylsilyl]-8-quinolinol]: the melting point lay in the range of 107 to 108 °C. Further, the “% Inh −AV” value with HCMV (Conc 1.00e+001 uM, Table 4) turned out to be 92.0%. Besides, the “% Inh −AV” value in the series on HCMV (Conc 2.00e+000 uM, Table 4) amounted to 56.0%. The “% Inh −AV” value in the series on HCMV (Conc 2.00e+001 uM, Table 4) was 86.0% and 76.0%. Further, the “% Inh −AV” value in the series with HCMV (Conc 4.00e+000 uM, Table 4) is 65.0% and 70.0%. In addition, the “% Inh −AV” value in the series on HCMV (Conc 4.00e+001 uM, Table 4) was 99.0% and 76.0%. For the same molecule, the “% Inh −AV” value in the series with HCMV (Conc 5.00e+001 uM, Table 4) worked out at 78.0%. In the series with HCMV (Conc 8.00e+000 uM, Table 4), the “% Inh −AV” value was 78.0%. The IC50 in the series on HCMV (setting [2]) amounted to 3.8 µM.

Take `Cc1ccc2c(Cl)cc(S(=O)(=O)NCCc3ccccn3)c(O)c2n1` [drawing 329]: the IC50 with HCMV (Human betaherpesvirus 5, Fibroblast, read-out: CMV Antiviral Assay IC50 (AV), Table 12) worked out at 14.6 µM.
